In patent US11274090B2, “P300/CBP HAT inhibitors” (Constellation Pharmaceuticals, Inc., priority 2018, dated 2022):

Target: p300 HAT domain (residues 1287-1666) (Homo sapiens (Human), UniProt Q09472)
Test: p300 HAT SPA assay (scintillation proximity assay, acetylation of biotinylated H3(1-21) peptide)
Assay type: biochemical
Conditions: average of at least 2 replicate titrations
Method in brief: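 Purified p300 HAT domain reaction transferred to streptavidin plates to capture biotinylated H3(1-21) peptide, incubated 1.5 hr at RT, and read by scintillation proximity. IC50 values derived from concentration-response data.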

p300 HAT domain (residues 1287-1666), sequence (Q09472 1287-1666): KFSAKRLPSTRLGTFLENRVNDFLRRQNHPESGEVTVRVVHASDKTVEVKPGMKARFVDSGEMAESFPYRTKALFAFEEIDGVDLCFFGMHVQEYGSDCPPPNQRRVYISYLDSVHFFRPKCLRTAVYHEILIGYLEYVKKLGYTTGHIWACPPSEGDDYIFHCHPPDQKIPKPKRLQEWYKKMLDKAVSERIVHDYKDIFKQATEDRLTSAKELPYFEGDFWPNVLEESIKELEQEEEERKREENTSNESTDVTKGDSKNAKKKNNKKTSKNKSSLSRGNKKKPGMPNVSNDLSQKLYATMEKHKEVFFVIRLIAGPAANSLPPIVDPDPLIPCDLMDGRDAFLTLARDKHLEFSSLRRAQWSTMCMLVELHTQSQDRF

IC50 | Molecule
> 5000 nM | COc1cc(-c2cnn(C)c2)ccc1NC(=O)C(NCCc1ccc(C#N)cc1)c1ccccc1 (single isomer, unassigned) [24 Isomer 1]
425 nM | CC(CNC(C(=O)Nc1ccc(-c2cnn(C(C)(C)C#N)c2)cn1)c1ccccc1)c1ccc(C#N)cc1 (single isomer, unassigned) [47 Isomer 4]
> 2000 nM | Cc1ccc(-c2ccc(NC(=O)C(NCC(C)c3ccc(C#N)cc3)c3ccccc3)nc2)nn1 (single isomer, unassigned) [15 Isomer 1]
> 2000 nM | CC(CNC(C(=O)Nc1ccc(-c2cn(C)nn2)cn1)c1ccccc1)c1ccc(C#N)cc1 (single isomer, unassigned) [100 Isomer 3]
> 5000 nM | Cn1cc(-c2ccc(NC(=O)C(NCCc3ccc(C#N)cc3)c3ccccc3)nn2)cn1 (single isomer, unassigned) [57 Isomer 2]
95.1 nM | Cc1ccc(CCNC(C(=O)Nc2ccc(-c3cnn(C)c3)cn2)c2ccccc2)cn1 (single isomer, unassigned) [141 Isomer 1]
> 5000 nM | CC1(C)CCN(c2ccc(NC(=O)C(NCCc3ccc(C#N)cc3)c3ccccc3)nc2)CC1 (single isomer, unassigned) [65 Isomer 2]
1350 nM | CC(CNC(C(=O)Nc1ccc(-c2cnn(C(C)(C)CO)c2)cn1)c1ccccc1)c1ccc(C#N)cc1 (single isomer, unassigned) [8 Isomer 2]
32.5 nM | Cc1nnc2n1CCN(c1ccc(NC(=O)C(NCCc3ccc(C#N)cc3)c3ccccc3)nc1)C2 (single isomer, unassigned) [60 Isomer 1]
17.4 nM | CC1CN(C)C(=O)CN1c1ccc(NC(=O)C(NC[C@@H](C)c2ccc(C#N)cc2)c2ccccc2)nc1 (single isomer, unassigned) [125 Isomer 3]
> 2000 nM | C[C@H](CNC(C(=O)Nc1ccc(-c2ccn(C)c(=O)c2)cn1)c1ccccc1)c1ccc(C#N)cc1 (single isomer, unassigned) [105 Isomer 1]
> 5000 nM | N#Cc1ccc(CCNC(C(=O)Nc2ccn(C3CCOCC3)n2)c2ccccc2)cc1 (single isomer, unassigned) [30 Isomer 1]
415 nM | CC(CNC(C(=O)Nc1ccc(-c2cn[nH]c2)cn1)c1ccccc1)c1ccc(C#N)cc1 (single isomer, unassigned) [104 Isomer 3]
486 nM | N#Cc1ccc(CCNC(C(=O)Nc2ccc(C3CCC3)cn2)c2ccccc2)cc1 (single isomer, unassigned) [46 Isomer 2]
1630 nM | (S,R)-, (R,S)-, (S,S)-, (R,R)-(2-((2-(4-cyanophenyl)propyl)amino)-N-(5-(1-(difluoromethyl)-1H-pyrazol-4-yl)pyridin-2-yl)-2-phenylacetamide [20 Isomer 3]
38 nM | Cc1noc(C)c1-c1ccc(NC(=O)C(NC[C@@H](C)c2ccc(C#N)cc2)c2ccccc2)nc1 (single isomer, unassigned) [131 Isomer 2]
> 2000 nM | CC(CNC(C(=O)Nc1ccc(N2CCN(CC(F)(F)F)C(=O)C2)cn1)c1ccccc1)c1ccc(C#N)cc1 (single isomer, unassigned) [103 Isomer 1]
18.8 nM | COC1CN(c2ccc(NC(=O)C(NCC(C)c3ccc(C#N)cc3)c3ccccc3)nc2)C1 (single isomer, unassigned) [32 Isomer 2]
140 nM | Cn1cc(-c2ccc(NC(=O)C(NCCc3ccc(Cl)cc3)c3cnn(C)c3)nc2)cn1 (single isomer, unassigned) [148 Isomer 2]
> 2000 nM | CC(CNC(C(=O)Nc1ccc(-n2cnc(C(C)(C)C)c2)cn1)c1ccccc1)c1ccc(C#N)cc1 (single isomer, unassigned) [59 Isomer 2]

IC50 | Molecule
11.5 nM | CO[C@@H]1CCN(c2ccc(NC(=O)C(NCC(C)c3ccc(C#N)cc3)c3ccccc3)nc2)C1 (single isomer, unassigned) [92 Isomer 2]
201 nM | N#Cc1ccc(CCNC(C(=O)Nc2ccc(N3CC4(COC4)C3)cn2)c2ccccc2)cc1 (single isomer, unassigned) [80 Isomer 1]
> 2000 nM | C[C@H](CNC(C(=O)Nc1ccc(-c2ccc(=O)n(C)n2)cn1)c1ccccc1)c1ccc(C#N)cc1 (single isomer, unassigned) [134 Isomer 1]
> 2000 nM | Cn1cc(-c2ccc(NC(=O)C(NCCc3ccc(C#N)cc3)c3cccc(Cl)c3)nc2)cn1 (single isomer, unassigned) [79 Isomer 1]
> 2000 nM | Cc1ccc(C(C)CNC(C(=O)Nc2ccc(-c3cnn(C)c3)cn2)c2ccccc2)cn1 (single isomer, unassigned) [143 Isomer 3]
39.3 nM | CC(CNC(C(=O)Nc1ccc(-n2cnc(C(C)(C)C)c2)cn1)c1ccccc1)c1ccc(C#N)cc1 (single isomer, unassigned) [59 Isomer 4]
> 2000 nM | Cn1cc(-c2ccc(NC(=O)C(NCCc3ccc(C#N)cc3)c3ccc(C(F)(F)F)cc3)nc2)cn1 (single isomer, unassigned) [120 Isomer 2]
243 nM | COc1cccc(C(NCCc2ccc(C#N)cc2)C(=O)Nc2ccc(-c3cnn(C)c3)cn2)c1 (single isomer, unassigned) [70 Isomer 2]
> 2000 nM | CC(CNC(C(=O)Nc1ccc(-c2cnn(C3CCC3)c2)cn1)c1ccccc1)c1ccc(C#N)cc1 (single isomer, unassigned) [52 Isomer 4]
20.2 nM | C[C@H](CNC(C(=O)Nc1ccc(-c2cnn(C)c2)cn1)c1cncc(F)c1)c1ccc(C#N)cc1 (single isomer, unassigned) [129 Isomer 2]
> 2000 nM | Cn1cc(-c2ccc(NC(=O)C(NCCn3cc(C#N)cn3)c3ccccc3)nc2)cn1 (single isomer, unassigned) [144 Isomer 1]
191 nM | Cn1cc(-c2ccc(NC(=O)C(NCC3(c4ccc(Cl)cc4)CC3)c3ccccc3)nc2)cn1 (single isomer, unassigned) [97 Isomer 1]
2760 nM | Cn1cc(-c2ccc(NC(=O)C(NCCc3ccc(C#N)cc3F)c3ccccc3)nc2)cn1 (single isomer, unassigned) [29 Isomer 2]
> 2000 nM | (S,R)-, (R,S)-, (S,S)-, (R,R)-(2-((2-(4-cyanophenyl)propyl)amino)-N-(5-(1-(difluoromethyl)-1H-pyrazol-4-yl)pyridin-2-yl)-2-phenylacetamide [20 Isomer 4]
4990 nM | Cn1cc(-c2ccc(NC(=O)[C@@H](NCCc3ccc(C#N)cc3)c3ccccc3)cc2)cn1 (single isomer, unassigned) [1 Isomer 1]
1850 nM | Cn1cc(-c2ccc(NC(=O)C(NCCc3ccc(C#N)cc3)c3ccccc3)c(Cl)c2)cn1 (single isomer, unassigned) [26 Isomer 2]
477 nM | CC1(C)CCN(c2ccc(NC(=O)C(NCCc3ccc(C#N)cc3)c3ccccc3)nc2)CC1 (single isomer, unassigned) [65 Isomer 1]
86 nM | COc1ccc(C(NCCc2ccc(C#N)cc2)C(=O)Nc2ccc(-c3cnn(C)c3)cn2)cc1 (single isomer, unassigned) [63 Isomer 1]
443 nM | Cn1cc(-c2ccc(NC(=O)C(NCCc3ccc(C#N)cc3)c3cccc(C#N)c3)nc2)cn1 (single isomer, unassigned) [116 Isomer 1]
> 2000 nM | CO[C@@H]1CCN(c2ccc(NC(=O)C(NCC(C)c3ccc(C#N)cc3)c3ccccc3)nc2)C1 (single isomer, unassigned) [92 Isomer 4]

Molecule | IC50
CC(Cc1ccc(Cl)cc1)NC(C(=O)Nc1ccc(-c2cnn(C)c2)cc1)c1ccccc1 (single isomer, unassigned) [3 Isomer 2] | > 5000 nM
